The numbers were not newly measured in patent US9987231B2, “Compositions and methods for delivery of omeprazole plus acetylsalicylic acid” (POZEN INC., priority 2011, dated 2018), which cites them from elsewhere.

Series [1] deals with Plasma protein.

`COc1ccc2[nH]c([S+]([O-])Cc3ncc(C)c(OC)c3C)nc2c1` (racemic) [Omeprazole]: the Systemic bioavailability result (after repeated dose) was “about 60%”. In addition, the “Orally given dose excreted as metabolites in the urine” value (in vivo, po) was “About 80%”. The “Time in which absorption is usually completed” value (small intestine) is 3 to 6 h. Moreover, in series [1], the Plasma protein binding entry is on record as “about 95%”.
